Laboratory results reported in patent US12152087B2, “Deuterated melflufen compounds” (Oncopeptides AB, priority 2018, dated 2024).
Counter-ions that a name gives are not always drawn. Like-named read-outs stand apart in the source and are kept apart here.

Assays:
[1] = Comparative single dose toxicokinetic study in dogs, 30 minutes intravenous infusion; type: in vivo, beagle dogs; conditions: for half-life / AUC(0-t) / Tmax / Cmax: beagle, dog; for half-life / AUC(0-t) / Tmax / Cmax / Tlast: plasma; for half-life: intravenous, estimable in one animal only, read-out: half-life; for AUC(0-t) / Tmax / Cmax: iv; for AUC(0-t) / Tmax / Cmax / Tlast: mean, labelled analyte; for Cmax: read-out: Cmax; for increase of systemic exposure with increasing doses, assuming dose proportionality: increasing doses of melflufen-d5 (III) infusion (1.25 and 2.5 mg/kg)
Protocol: A comparative single dose toxicity study in dogs was carried out, comparing melflufen-d5 (III) and melflufen to investigate the toxicokinetics of melflufen and melflufen-d5 (III) and their metabolites, desethyl-melflufen and melphalan, after a single intravenous administration of melflufen-d5 (III) or melflufen as 30 minutes infusion in the dog.
This study aimed to compare the potential acute toxicity of melflufen-d5 (III) and melflufen. The toxicokinetics of melflufen-d5 (III), melflufen and their metabolites desethyl-melflufen and melphalan were evaluated after a single intravenous administration as 30 minutes infusion in dogs.
Melflufen-d5 (III) or melflufen were given as 30 minutes infusion to male and female dogs according to the following scheme:
Blood samples were collected from peripheral vein on Day 1 at pre-dose, 15 min, 30 min (just prior to end of infusion), 40 min, 1 h, 2 h, 4 h and 6 h after the start of infusion).
Blood samples were collected into heparinized collection tubes, put in an ice-water bath and immediately centrifuged (3 minutes, 10000 g, +4° C.). The obtained plasma was divided into two aliquots, placed into pre-chilled cryovials and in a freezer at −70° C. until analysis.
Toxicokinetic Calculations Plasma toxicokinetic analyses for melflufen-d5 (III), melflufen and their metabolites, desethyl-melflufen and melphalan were performed according to standard non-compartmental approach using Phoenix WinNonlin system (v. 6.3, Certara Company, USA).
After administration, Cmax, maximum concentration, and Tmax, time at which the maximum concentration was achieved, were read as the coordinates of the highest plasma concentration of the time course. Clast, last detectable concentration, and Tlast, time of the last detectable concentration, were reported as parameters.
The area under plasma concentration vs. time curve up to the last detectable concentration, AUClast, was calculated by the linear trapezoidal rule.
t1/2,z, the half-life of the terminal phase, was calculated by linear regression analysis of the natural-log concentration vs. time curve according to the formula: […]
AUC∞ the area under plasma concentration vs. time curve up to infinite time, was calculated by adding the portion of the area calculated as Clast/λz to AUClast assuming mono-exponential decay.

[2] = tested on: primary cultures of human tumour cells; conditions: panels of primary cultures of human tumour cells; cited from earlier work
[3] = 2-fold melflufen-d5 (III) dose increase (1.25 to 2.5 mg/kg), combined genders
[4] = both sexes, 1.25 mg/kg, group 2: melflufen-d5 (III) 1.25 mg/kg 30 min infusion, M + F combined
[5] = both sexes, 2.5 mg/kg, group 3: melflufen-d5 (III) 2.5 mg/kg 30 min infusion, M + F combined
[6] = both sexes, 2.5 mg/kg, group 4: melflufen 2.5 mg/kg 30 min infusion, M + F combined
[7] = female, 1.25 mg/kg, group 2: melflufen-d5 (III) 1.25 mg/kg 30 min infusion, females
[8] = female, 2.5 mg/kg, group 3: melflufen-d5 (III) 2.5 mg/kg 30 min infusion, females
[9] = female, 2.5 mg/kg, group 4: melflufen 2.5 mg/kg 30 min infusion, females
[10] = male, 1.25 mg/kg, group 2: melflufen-d5 (III) 1.25 mg/kg 30 min infusion, males
[11] = male, 2.5 mg/kg, group 3: melflufen-d5 (III) 2.5 mg/kg 30 min infusion, males
[12] = male, 2.5 mg/kg, group 4: melflufen 2.5 mg/kg 30 min infusion, males
[13] = group 2: melflufen-d5 (III) 1.25 mg/kg 30 min infusion, M + F combined
[14] = group 2: melflufen-d5 (III) 1.25 mg/kg 30 min infusion, females
[15] = group 2: melflufen-d5 (III) 1.25 mg/kg 30 min infusion, males
[16] = group 3: melflufen-d5 (III) 2.5 mg/kg 30 min infusion, M + F combined
[17] = group 3: melflufen-d5 (III) 2.5 mg/kg 30 min infusion, females
[18] = group 3: melflufen-d5 (III) 2.5 mg/kg 30 min infusion, males
[19] = group 4: melflufen 2.5 mg/kg 30 min infusion, M + F combined
[20] = group 4: melflufen 2.5 mg/kg 30 min infusion, females
[21] = group 4: melflufen 2.5 mg/kg 30 min infusion, males

With `N[C@@H](Cc1ccc(N(CCCl)CCCl)cc1)C(=O)N[C@@H](Cc1ccc(F)cc1)C(=O)O` [desethyl-melflufen, (2S)-2-[[(2S)-2-amino-3-[4-[bis(2-chloroethyl)amino]phenyl]propanoyl]amino]-3-(4-fluorophenyl)propanoic acid] the “increase of AUClast of the metabolite with dose” value [1, 3] was 3.5 fold, the “increase of Cmax of the metabolite with dose” value [1, 3] was 3.1 fold and the “exposure relative to the parent compound exposure” value ([1]; after melflufen-d5 (III) infusion) was “about one-half”. For the same molecule, the half-life ([1]; 2.5 mg/kg, after melflufen 2.5 mg/kg (group 4)) was 7 min, the half-life ([1]; 2.5 mg/kg, after melflufen-d5 (III) 2.5 mg/kg) was 5 min and the AUC(0-t) [1, 4] was 0.0144 µM·h. For the same molecule, the Tmax [1, 4] was 30 min, the Cmax [1, 4] was 33.2 nM and the AUC(0-t) [1, 5] was 0.0506 µM·h. It also gave a Tmax [1, 5] of 27.5 min, a Cmax [1, 5] of 102 nM and an AUC(0-t) [1, 6] of 0.0325 µM·h. For the same molecule, the Tmax [1, 6] was 27.5 min, the Cmax [1, 6] was 71.4 nM and the “average exposure to the metabolite after infusion of melflufen compared with after infusion of melflufen-d5 (III)” value ([1]; each at 2.5 mg/kg) was “lower”. The AUC(0-t) [1, 7] was 0.0132 µM·h, the Tmax [1, 7] was 30 min and the Cmax [1, 7] was 30.8 nM. For the same molecule, the AUC(0-t) [1, 8] was 0.0358 µM·h, the Tmax [1, 8] was 30 min and the Cmax [1, 8] was 70.3 nM. For the same molecule, the AUC(0-t) [1, 9] was 0.0287 µM·h, the Tmax [1, 9] was 25 min and the Cmax [1, 9] was 60.5 nM. For the same molecule, the “increase of systemic exposure with increasing doses, assuming dose proportionality” value [1] was “slightly more than expected”, the “no longer detectable after, post-dosing” value ([1]; labelled metabolite after 1.25-2.5 mg/kg melflufen-d5 (III) infusion) was 40 to 60 min and the “time of maximal plasma concentration” value ([1]; labelled metabolite after 1.25 and 2.5 mg/kg melflufen-d5 (III) infusion (groups 2 and 3)) was 15 to 30 min. For the same molecule, the AUC(0-t) [1, 10] was 0.0155 µM·h, the Tmax [1, 10] was 30 min and the Cmax [1, 10] was 35.6 nM. The AUC(0-t) [1, 11] was 0.0655 µM·h, the Tmax [1, 11] was 25 min and the Cmax [1, 11] was 134 nM. The AUC(0-t) [1, 12] was 0.0363 µM·h, the Tmax [1, 12] was 30 min and the Cmax [1, 12] was 82.2 nM. For the same molecule, the Tlast [1, 13] was 0.667 h, the Tlast [1, 14] was 0.667 h and the Tlast [1, 15] was 0.667 h. It also gave a Tlast [1, 16] of 1.00 h, a Tlast [1, 17] of 1.00 h and a Tlast [1, 18] of 1.00 h. For the same molecule, the Tlast [1, 19] was 0.945 h, the Tlast [1, 20] was 0.889 h and the Tlast [1, 21] was 1.00 h.
For `CCOC(=O)[C@H](Cc1ccc(F)cc1)NC(=O)[C@@H](N)Cc1ccc(N(CCCl)CCCl)cc1` [melflufen, L-Melphalanyl-4-fluoro-L-phenylalanine ethyl ester], the “efficacy, fold higher than melphalan” value [2] is given as 50 to 100 fold, the AUC(0-t) [1, 6] is given as 0.0433 µM·h and the Tmax [1, 6] is given as 20 min. For the same molecule, the Cmax [1, 6] was 144 nM, the “average exposure to melflufen, fold lower than that to melflufen-d5 (III)” value ([1]; each at 2.5 mg/kg (group 4 vs group 3)) was 2 fold and the AUC(0-t) [1, 9] was 0.0539 µM·h. The Tmax [1, 9] was 25 min, the Cmax [1, 9] was 163 nM and the AUC(0-t) [1, 12] was 0.0326 µM·h. For the same molecule, the Tmax [1, 12] was 15 min, the Cmax [1, 12] was 124 nM and the Tlast [1, 19] was 0.500 h. The Tlast [1, 20] was 0.500 h, the Tlast [1, 21] was 0.500 h and the “time of peak in plasma” value ([1]; melflufen infused for 30 minutes at 2.5 mg/kg (group 4)) was 15 to 30 min.
In the case of `[2H]C([2H])([2H])C([2H])([2H])OC(=O)C(Cc1ccc(F)cc1)NC(=O)C(N)Cc1ccc(N(CCCl)CCCl)cc1` [melflufen-d5 (III), (^2H5)ethyl (2S)-2-[(2S)-2-amino-3-{4-[bis(2-chloroethyl)amino]phenyl}propanamido]-3-(4-fluorophenyl)propanoate hydrochloride], the “increase of exposure with the dose in terms of peak and area under the curve” value ([1]; 2.5 vs 1.25 mg/kg melflufen-d5 (III) (2-fold dose increase), combined gender parameters) was 2.7 fold, the AUC(0-t) [1, 4] was 0.0336 µM·h and the Tmax [1, 4] was 22.5 min. For the same molecule, the Cmax [1, 4] was 98.5 nM, the AUC(0-t) [1, 5] was 0.0902 µM·h and the Tmax [1, 5] was 22.5 min. For the same molecule, the Cmax [1, 5] was 253 nM, the “exposure after infusion of melflufen-d5 (III) compared to melflufen” value ([1]; equivalent doses) was “consistently higher” and the AUC(0-t) [1, 7] was 0.0296 µM·h. The Tmax [1, 7] was 30 min, the Cmax [1, 7] was 99.3 nM and the AUC(0-t) [1, 8] was 0.0564 µM·h. For the same molecule, the Tmax [1, 8] was 20 min, the Cmax [1, 8] was 159 nM and the “increase of systemic exposure with increasing doses, assuming dose proportionality” value [1] was “slightly more than expected”. The AUC(0-t) [1, 10] was 0.0377 µM·h, the Tmax [1, 10] was 15 min and the Cmax [1, 10] was 97.7 nM. It also gave an AUC(0-t) [1, 11] of 0.124 µM·h, a Tmax [1, 11] of 25 min and a Cmax [1, 11] of 346 nM. The Tlast [1, 13] was 0.528 h, the Tlast [1, 14] was 0.50 h and the Tlast [1, 15] was 0.556 h. The Tlast [1, 16] was 0.611 h, the Tlast [1, 17] was 0.611 h and the Tlast [1, 18] was 0.611 h. The “disappeared from plasma, time from start of dosing” value ([1]; melflufen-d5 (III) infused for 30 minutes at 1.25 and 2.5 mg/kg (groups 2 and 3)) was ≤ 40 min.
